Experiments:
growth of cartilage = details: in vivo; cited from earlier work
[1] = test system: children with Osteogenesis Imperfecta; test: Continuous disodium pamidronate treatment of children with Osteogenesis Imperfecta (absorptiometry, biochemical markers, quantitative computerized tomography of the tibia); assay type: in vivo, human
Description: The doses were adjusted to the patient's condition with a mean of 3.5 mg/Kg of body weight/day by oral administration, or 20 mg per dose, every 3-6 months, by intravenous administration in one of the cases.
The latter can be attributed to the scarce development of inertia due to the internal osseous lack of resorption in the diaphysis. In FIG. 2 it can be observed that in children with normal development, there exists a range of cortical mineralization which contributes to the diaphysial stability (resistance to deformation). This range is of approximately 1020-1100 mg/cm3.
The administration period of bisphosphonates was 2-4.5 years, indicating the existence of a wide interindividual variability in order to obtain the “mineralizing” effect and the inconvenience of adopting fixed periods of treatments.

Compound: CN(C)CCC(O)(P(=O)(O)O)P(=O)(O)O [olpadronate]
- effect on the growth of cartilage (growth of cartilage): not to affect the growth of cartilage

Compound: NCCC(O)(P(=O)(O)O)P(=O)(O)O [pamidronate, disodium pamidronate]
- cortical mineralization range reached (cortical mineral density of the tibia, vDMO) ([1]; FIG. 2, range of normal children that contributes to diaphysial stability, reached by treated OI children): 1020-1100 mg/cm3
- osseous metabolic turnover (biochemical markers of osseous resorption and formation) ([1]; OI type III/IV children, continuous scheme 2.5-4 years, mean 3.5 mg/Kg/day oral or 20 mg i.v. every 3-6 months, urinary hydroxyproline/creatinine, serum alkaline phosphatase, osteocalcine): reduction of the osseous metabolic turnover
- total apparent mineral density of the lumbar vertebrae and the neck of the femur ([1]; osseous absorptiometries, continuous scheme 2.5-4 years): progressive improvement
